Results from patent US20250082931A1, “Treating Gastric Cancer Using TTFields Combined with XELOX, FOLFOX or the Individual Constituents Thereof” (Novocure GmbH, priority 2019, published 2025).

How the values were obtained:
KATO III cells [1] = assay: Overall effect (cytotoxic effect x clonogenic effect); details: 72 h, one experiment
Description: (§1) After 6-14 days the colonies were fixed, stained and counted to determine clonogenic effect. The overall effect was calculated by multiplying the cytotoxic effect and the clonogenic effect.
(§2) Overall effect: Each colony number was multiply in the percent of cytotoxic effect of its dish and averages and standard deviations of each treatment were calculated in Excel software. […] Significant was determine by 2-way ANOVA followed Multiple comparison using GraphPed software.

AGS cells [2] = assay: Clonogenic effect (colonies count); type: cell-based; details: for colonies count: 72 h
Description: (§3) After 72 h of treatment the media and the cells were collected, and cytotoxicity was determined by cell counts. […] For the testing of the clonogenic effect, cells were seeded for colonies.
as §1
(§4) Clonogenic effect: The colonies from each well were counted using ImageJ software. Average and standard deviation of colony number of at least 5 wells from each treatment were calculated in excel software. The averages from these repeats was calculated to averages and standard errors and is presented as percent from control (no drug treatment) in XY graph of points with error bars using GraphPed software. Significant was determine by 2-way ANOVA followed Multiple comparison using GraphPed software.

AGS cells [3] = system: AGS cells
Description: (§5) During the treatment the media of all dishes was replaced every 24 h (“hours”).
(§6) After 72 h of treatment the media and the cells were collected, and cytotoxicity was determined by cell counts.
(§7) Cells were seeded on inovitro dishes and petri dishes 24 h before starting the experiments. Media containing the indicated concentration of each chemotherapy component alone or FOLFOX and control media was added to the cells and the dishes were connected to TTFields (as in SOP-BI-009) or grown in 37° C., 5% CO2 for 72 h. Each treatment included 8 repeats (8 dishes). The media was replaced every 24 h. At the end of the experiment the cells were collected, and cytotoxicity was determined by cell counts, small number of cells were seeded for colonies and the cells (including cells from the media) were stained for Annexin V and 7AAD for apoptosis analysis.
(§8) A TTFields generator (Inovitro systems) was used to apply the treatment to the cells.
(§9) Cytotoxic effect: Average and standard deviation of cell number of at least 5 dishes from each treatment was calculated in Excel software. The averages from these repeats was calculated to averages and standard error and is presented as percent from control (no drug treatment) in XY graph of points with error bars using GraphPed software. Significant was determine by 2-way ANOVA followed Multiple comparison using GraphPed software.

KATO III cells [4] = assay: Cytotoxic effect by cell count after 72 h, with and without TTFields
Description: as §5, §6, §7, §8, §9

KATO III cells [5] = assay: Apoptosis analysis by Annexin V / 7AAD staining; type: cell-based; details: for AnnV+ 7AAD+ cell fraction / AnnV+ 7AAD− cell fraction / AnnV− 7AAD+ cell fraction / AnnV− 7AAD− cell fraction: 72 h
Description: (§10) After 72 h of treatment the media and the cells were collected, and cytotoxicity was determined by cell counts. Cells (including cells from the media) were stained for Annexin V and 7AAD for apoptosis analysis. For the testing of the clonogenic effect, cells were seeded for colonies.
as §7
(§11) Apoptotic effect: Average of cell fraction of each marker staining (Annexin V and 7AAD) of at least 5 dishes from each treatment was calculated in Excel software. The averages from these repeats was calculated to averages and is presented in stacked bar graph using GraphPed software.

AGS cells [6] = assay: Apoptosis analysis by Annexin V / 7AAD staining; type: cell-based; details: for AnnV+ 7AAD+ cell fraction / AnnV+ 7AAD− cell fraction / AnnV− 7AAD+ cell fraction / AnnV− 7AAD− cell fraction: 72 h
Description: as §10, §7, §11

KATO III cells [7] = assay: Clonogenic effect (colonies count); details: for colonies count: 72 h, one experiment;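 for all read-outs here: after treatment, KATO III cells were reseeded and grown 6–14 days, then colonies were fixed, stained and counted, expressed as percent of untreated (no drug) control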
Description: as §3, §1, §4

KATO III cells [8] = system: KATO III cells
Description: as §5, §6, §7, §8, §9

AGS cells [9] = assay: Overall effect (cytotoxic effect x clonogenic effect); type: cell-based; details: 72 h
Description: as §1, §2

AGS cells [10] = assay: Cytotoxic effect by cell count after 72 h, with and without TTFields
Description: as §5, §6, §7, §8, §9

[11] = 2.5 uM, + TTFields 150 kHz 1.6 V/cm
[12] = 5 uM, + TTFields 150 kHz 1.6 V/cm
[13] = 10 uM, + TTFields 150 kHz 1.6 V/cm
[14] = 0.2 uM, + TTFields 150 kHz 1.0 V/cm, one experiment
[15] = 0.2 uM, no TTFields, one experiment
[16] = 1 uM, + TTFields 150 kHz 1.0 V/cm, one experiment
[17] = 1 uM, no TTFields, one experiment
[18] = 5 uM, + TTFields 150 kHz 1.0 V/cm, one experiment
[19] = 5 uM, no TTFields, one experiment
[20] = FOLFOX experiment, 5 uM, + TTFields 150 kHz 1.0 V/cm
[21] = FOLFOX experiment, 5 uM, no TTFields
[22] = 2.5 uM, + TTFields 150 kHz 1.6 V/cm, one experiment
[23] = 2.5 uM, no TTFields, one experiment
[24] = 5 uM, + TTFields 150 kHz 1.6 V/cm, one experiment
[25] = 10 uM, + TTFields 150 kHz 1.6 V/cm, one experiment
[26] = 10 uM, no TTFields, one experiment
[27] = FOLFOX experiment, 10 uM, + TTFields 150 kHz 1.6 V/cm
[28] = FOLFOX experiment, 10 uM, no TTFields
[29] = 10 uM, + TTFields 150 kHz 1.0 V/cm, one experiment

Nc1nc2c(c(=O)[nH]1)N(C=O)C(CNc1ccc(C(=O)N[C@@H](CCC(=O)O)C(=O)O)cc1)CN2 (stereo partly drawn) [Leucovorin]
overall effect (colonies count multiplying the cytotoxic effect) (KATO III cells [1]; [11]): 32 % from control
overall effect (colonies count multiplying the cytotoxic effect) (KATO III cells [1]; 2.5 uM, no TTFields): 106 % from control
overall effect (colonies count multiplying the cytotoxic effect) (KATO III cells [1]; [12]): 35 % from control
overall effect (colonies count multiplying the cytotoxic effect) (KATO III cells [1]; 5 uM, no TTFields): 81 % from control
overall effect (colonies count multiplying the cytotoxic effect) (KATO III cells [1]; [13]): 27 % from control
overall effect (colonies count multiplying the cytotoxic effect) (KATO III cells [1]; 10 uM, no TTFields): 78 % from control
colonies count (AGS cells [2]; [14]): 70 % from control
colonies count (AGS cells [2]; [15]): 88 % from control
colonies count (AGS cells [2]; [16]): 77 % from control
colonies count (AGS cells [2]; [17]): 87 % from control
colonies count (AGS cells [2]; [18]): 70 % from control
colonies count (AGS cells [2]; [19]): 95 % from control
colonies count (AGS cells [2]; [20]): 69 % from control
colonies count (AGS cells [2]; [21]): 103 % from control
clonogenic effect of drug alone (AGS cells [2]; without TTFields): does not show
cytotoxic effect of drug alone (AGS cells [3]): does not show
cell count (KATO III cells [4]; [22]): 58 % from control
cell count (KATO III cells [4]; [23]): 106 % from control
cell count (KATO III cells [4]; [24]): 51 % from control
cell count (KATO III cells [4]; [19]): 107 % from control
cell count (KATO III cells [4]; [25]): 47 % from control
cell count (KATO III cells [4]; [26]): 90 % from control
cell count (KATO III cells [4]; FOLFOX experiment, 5 uM, + TTFields 150 kHz 1.6 V/cm): 49 % from control
cell count (KATO III cells [4]; [21]): 102 % from control
AnnV+ 7AAD+ cell fraction (KATO III cells [5]; [22]): 18.45%
AnnV+ 7AAD− cell fraction (KATO III cells [5]; [22]): 39.43%
AnnV− 7AAD+ cell fraction (KATO III cells [5]; [22]): 0.3%
AnnV− 7AAD− cell fraction (KATO III cells [5]; [22]): 41.82%
AnnV+ 7AAD+ cell fraction (KATO III cells [5]; [23]): 8.51%
AnnV+ 7AAD− cell fraction (KATO III cells [5]; [23]): 24.86%
AnnV− 7AAD+ cell fraction (KATO III cells [5]; [23]): 0.06%
AnnV− 7AAD− cell fraction (KATO III cells [5]; [23]): 66.57%
AnnV+ 7AAD+ cell fraction (KATO III cells [5]; [24]): 25.55%
AnnV+ 7AAD− cell fraction (KATO III cells [5]; [24]): 36.56%
AnnV− 7AAD+ cell fraction (KATO III cells [5]; [24]): 0.2%
AnnV− 7AAD− cell fraction (KATO III cells [5]; [24]): 37.69%
AnnV+ 7AAD+ cell fraction (KATO III cells [5]; [19]): 9.4%
AnnV+ 7AAD− cell fraction (KATO III cells [5]; [19]): 36.5%
AnnV− 7AAD+ cell fraction (KATO III cells [5]; [19]): 0.12%
AnnV− 7AAD− cell fraction (KATO III cells [5]; [19]): 53.98%
AnnV+ 7AAD+ cell fraction (KATO III cells [5]; [25]): 28.48%
AnnV+ 7AAD− cell fraction (KATO III cells [5]; [25]): 35.82%
AnnV− 7AAD+ cell fraction (KATO III cells [5]; [25]): 0.4%
AnnV− 7AAD− cell fraction (KATO III cells [5]; [25]): 35.3%
AnnV+ 7AAD+ cell fraction (KATO III cells [5]; [26]): 12.64%
AnnV+ 7AAD− cell fraction (KATO III cells [5]; [26]): 39.85%
AnnV− 7AAD+ cell fraction (KATO III cells [5]; [26]): 1.01%
AnnV− 7AAD− cell fraction (KATO III cells [5]; [26]): 46.5%
AnnV+ 7AAD+ cell fraction (KATO III cells [5]; [27]): 33.83%
AnnV+ 7AAD− cell fraction (KATO III cells [5]; [27]): 18.24%
AnnV− 7AAD+ cell fraction (KATO III cells [5]; [27]): 1.32%
AnnV− 7AAD− cell fraction (KATO III cells [5]; [27]): 46.62%
AnnV+ 7AAD+ cell fraction (KATO III cells [5]; [28]): 24.39%
AnnV+ 7AAD− cell fraction (KATO III cells [5]; [28]): 12.36%
AnnV− 7AAD+ cell fraction (KATO III cells [5]; [28]): 0.80%
AnnV− 7AAD− cell fraction (KATO III cells [5]; [28]): 62.46%
apoptotic effect of drug alone (KATO III cells [5]; without TTFields): does not show
AnnV+ 7AAD+ cell fraction (AGS cells [6]; [14]): 5.34%
AnnV+ 7AAD− cell fraction (AGS cells [6]; [14]): 4.69%
AnnV− 7AAD+ cell fraction (AGS cells [6]; [14]): 2.18%
AnnV− 7AAD− cell fraction (AGS cells [6]; [14]): 87.79%
AnnV+ 7AAD+ cell fraction (AGS cells [6]; [15]): 2.25%
AnnV+ 7AAD− cell fraction (AGS cells [6]; [15]): 3.42%
AnnV− 7AAD+ cell fraction (AGS cells [6]; [15]): 2.19%
AnnV− 7AAD− cell fraction (AGS cells [6]; [15]): 92.14%
AnnV+ 7AAD+ cell fraction (AGS cells [6]; [18]): 5.55%
AnnV+ 7AAD− cell fraction (AGS cells [6]; [18]): 5.61%
AnnV− 7AAD+ cell fraction (AGS cells [6]; [18]): 3.04%
AnnV− 7AAD− cell fraction (AGS cells [6]; [18]): 85.8%
AnnV+ 7AAD+ cell fraction (AGS cells [6]; [19]): 2.29%
AnnV+ 7AAD− cell fraction (AGS cells [6]; [19]): 4.12%
AnnV− 7AAD+ cell fraction (AGS cells [6]; [19]): 1.02%
AnnV− 7AAD− cell fraction (AGS cells [6]; [19]): 92.57%
AnnV+ 7AAD+ cell fraction (AGS cells [6]; [29]): 3.74%
AnnV+ 7AAD− cell fraction (AGS cells [6]; [29]): 6.27%
AnnV− 7AAD+ cell fraction (AGS cells [6]; [29]): 2.72%
AnnV− 7AAD− cell fraction (AGS cells [6]; [29]): 87.27%
AnnV+ 7AAD+ cell fraction (AGS cells [6]; [26]): 2.84%
AnnV+ 7AAD− cell fraction (AGS cells [6]; [26]): 5.62%
AnnV− 7AAD+ cell fraction (AGS cells [6]; [26]): 1.01%
AnnV− 7AAD− cell fraction (AGS cells [6]; [26]): 90.54%
AnnV+ 7AAD+ cell fraction (AGS cells [6]; [20]): 10.2%
AnnV+ 7AAD− cell fraction (AGS cells [6]; [20]): 6.6%
AnnV− 7AAD+ cell fraction (AGS cells [6]; [20]): 2.4%
AnnV− 7AAD− cell fraction (AGS cells [6]; [20]): 80.7%
AnnV+ 7AAD+ cell fraction (AGS cells [6]; [21]): 4.3%
AnnV+ 7AAD− cell fraction (AGS cells [6]; [21]): 5.3%
AnnV− 7AAD+ cell fraction (AGS cells [6]; [21]): 2.6%
AnnV− 7AAD− cell fraction (AGS cells [6]; [21]): 87.7%
apoptotic effect of drug alone (AGS cells [6]; without TTFields): does not show
colonies count (KATO III cells [7]; [11]): 60 % from control
colonies count (KATO III cells [7]; 2.5 uM, no TTFields): 100 % from control
colonies count (KATO III cells [7]; [12]): 68 % from control
colonies count (KATO III cells [7]; 5 uM, no TTFields): 79 % from control
colonies count (KATO III cells [7]; [13]): 62 % from control
colonies count (KATO III cells [7]; 10 uM, no TTFields): 91 % from control
clonogenic effect of drug alone (KATO III cells [7]; without TTFields): does not show
cytotoxic effect of drug alone (KATO III cells [8]): does not show
overall effect (colonies count multiplying the cytotoxic effect) (AGS cells [9]; [14]): 42.9 % from control
overall effect (colonies count multiplying the cytotoxic effect) (AGS cells [9]; [15]): 86.6 % from control
overall effect (colonies count multiplying the cytotoxic effect) (AGS cells [9]; [16]): 36.7 % from control
overall effect (colonies count multiplying the cytotoxic effect) (AGS cells [9]; [17]): 89.7 % from control
overall effect (colonies count multiplying the cytotoxic effect) (AGS cells [9]; [18]): 41.7 % from control
overall effect (colonies count multiplying the cytotoxic effect) (AGS cells [9]; [19]): 88.8 % from control
overall effect (colonies count multiplying the cytotoxic effect) (AGS cells [9]; [20]): 41 % from control
overall effect (colonies count multiplying the cytotoxic effect) (AGS cells [9]; [21]): 88 % from control
cell count (AGS cells [10]; 0.2 uM, + TTFields 150 kHz 1.0 V/cm): 44 % from control
cell count (AGS cells [10]; 0.2 uM, no TTFields): 88 % from control
cell count (AGS cells [10]; 1 uM, + TTFields 150 kHz 1.0 V/cm): 46.5 % from control
cell count (AGS cells [10]; 1 uM, no TTFields): 84 % from control
cell count (AGS cells [10]; 5 uM, + TTFields 150 kHz 1.0 V/cm): 45 % from control
cell count (AGS cells [10]; 5 uM, no TTFields): 77 % from control
cell count (AGS cells [10]; [20]): 59 % from control
cell count (AGS cells [10]; [21]): 83 % from control
